Results on two compounds are retold here after ChEMBL document CHEMBL1141636, “New ultra-short acting hypnotic: synthesis, biological evaluation, and metabolic profile of ethyl 8-oxo-5,6,7,8-tetrahydro-thiazolo[3,2-a][1,3]diazepin-3-carboxylate (HIE-124)” (Bioorg Med Chem Lett, 2008).

Data set [1] has as its system Mus musculus. Description: Hypnotic effect in mouse assessed as sleeping time at 50 mg/kg, iv by loss of righting reflex method. Type of data set: functional.
For data set [2], the system named is Mus musculus. Nature of the data set: Hypnotic effect in mouse assessed as sleeping time at 100 mg/kg, iv by loss of righting reflex method. Type of data set: functional.
Data set [3] relates to Mus musculus. Nature of the data set: Potentiation of thiopental-induced hypnosis in mouse assessed as sleeping time at 50 mg/kg, iv by loss of righting reflex method. Type of data set: functional.
The subject of data set [4] is Mus musculus. Description: Potentiation of thiopental-induced hypnosis in mouse assessed as sleeping time at 100 mg/kg, iv by loss of righting reflex method. Type of data set: functional.
Data set [5] concerns Mus musculus. Description: Hypnotic effect in mouse assessed as sleeping time at 100 mg/kg, ip. Particulars: route intraperitoneal. Type of data set: functional.
The subject of data set [6] is Mus musculus. Nature of the data set: Hypnotic effect in mouse assessed as sleeping time at 200 mg/kg, ip. Type of data set: functional. Conditions: route intraperitoneal.
In data set [7] the test system is Mus musculus. Description: Potentiation of thiopental-induced hypnosis in mouse assessed as sleeping time at 100 mg/kg, ip. Type of data set: functional. Conditions: route intraperitoneal.
The subject of data set [8] is Mus musculus. Description: Potentiation of thiopental-induced hypnosis in mouse assessed as sleeping time at 200 mg/kg, ip. Type of data set: functional. Conditions: route intraperitoneal.
Data set [9] has as its system Mus musculus. Description: Acute tolerance in mouse assessed as sleeping time at 200 mg/kg, ip 3 times day after 3 days. The arrangement: dose 200 mg/kg, route intraperitoneal. Type of data set: ADME, organism-based. Conditions: in vivo, 72 h.
In data set [10] the test system is Mus musculus. Nature of the data set: Acute tolerance in mouse assessed as sleeping time at 200 mg/kg, ip. Conditions: in vivo. The arrangement: dose 200 mg/kg, route intraperitoneal. Type of data set: ADME, organism-based.
For data set [11], the system named is Mus musculus. Nature of the data set: Hypnotic effect in mouse assessed as sleeping time at 65 mg/kg, ip. Type of data set: functional. Particulars: route intraperitoneal.

SMILES strings stand for the structures.

For the compound `CCOC(=O)C1=CSC2=NC(=O)CCCN12`, the Time with Mus musculus [1] is 0.75 min; with Mus musculus [2], 1.48 min; in the data set with Mus musculus [3], 19.9 min; with Mus musculus [4], 25.7 min; in the data set with Mus musculus [5] it was 2.4 min; in the data set with Mus musculus [6], 9.1 min. In addition, the Time was determined as 49.2 min with Mus musculus [7], 155.7 min in the data set with Mus musculus [8], 8.7 min with Mus musculus [9] and 10.3 min with Mus musculus [10].

With `CCCC(C)C1(CC)C(=O)[N-]C(=S)NC1=O.[Na+]` (configuration not stated) [THIOPENTAL SODIUM], the Time worked out at 4.9 min with Mus musculus [1] and 15.2 min in the data set with Mus musculus [11].
